Here are results for 23 compounds from ChEMBL document CHEMBL5390252, “Imidazo[2,1-b]thiazole based indoleamine-2,3-dioxygenase 1 (IDO1) inhibitor: Structure based design, synthesis, bio-evaluation and docking studies” (Bioorg Med Chem Lett, 2023).

For orientation: IC50 means the concentration that inhibits the measured activity by half. For orientation: inhibition means the change of the read-out against control, counted positive when it falls. The term Ki denotes the equilibrium dissociation constant of an inhibitor or competing ligand from its target.

The target of series [1] is T1, Indoleamine 2,3-dioxygenase 1 (Homo sapiens, UniProt P14902). As to the kind of experiment: Inhibition of human IDO1 using L-tryptophan as substrate assessed as reduction in N-formyl kynurenine formation by UV-visible spectroscopic analysis.
Target sequence in this assay (P14902 whole entry): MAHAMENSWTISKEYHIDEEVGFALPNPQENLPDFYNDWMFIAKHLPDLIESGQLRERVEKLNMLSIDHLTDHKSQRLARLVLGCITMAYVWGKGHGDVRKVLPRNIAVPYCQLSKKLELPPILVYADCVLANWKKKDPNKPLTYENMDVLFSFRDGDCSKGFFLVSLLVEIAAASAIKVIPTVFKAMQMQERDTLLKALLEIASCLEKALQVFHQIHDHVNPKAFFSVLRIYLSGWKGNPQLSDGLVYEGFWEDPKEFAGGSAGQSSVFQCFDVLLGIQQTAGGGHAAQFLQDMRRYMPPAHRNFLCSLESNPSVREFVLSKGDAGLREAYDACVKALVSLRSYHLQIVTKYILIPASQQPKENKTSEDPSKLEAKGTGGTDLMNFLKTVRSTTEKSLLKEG
The target of series [2] is T1, Indoleamine 2,3-dioxygenase 1. Conditions: dose 1.0 mM.
Target sequence in this assay (P14902 whole entry, looked up): as the sequence (P14902 whole entry) above
For series [3] the target is unchanged. The series is described as follows: Inhibition of human IDO1 using L-tryptophan as substrate assessed as reduction in N-formyl kynurenine formation by measuring inhibition constant by UV-visible spectroscopic analysis.
Target sequence in this assay (P14902 whole entry): as above
A further series has as its system HEK293. As to the kind of experiment: Cytotoxicity against HEK293 cells assessed as reduction in cell viability at 100 uM measured after 24 hrs by alamar blue assay relative to control. It counts as toxicity, cell-based. Particulars: human, hek293, 24 h. (In general: Resazurin is reduced to fluorescent resorufin, in cell work by metabolically active cells.)
A short description of series [4]: Cytotoxicity against HEK293 cells assessed as cell viability at 10 to 50 uM measured after 24 hrs by alamar blue assay relative to control. Particulars: human, dose 10-50 µM, read-out: Activity. It counts as toxicity, cell-based.
The target in series [5] is T1, Indoleamine 2,3-dioxygenase 1. The series is described as follows: Inhibition of human IDO1 using L-tryptophan as substrate assessed as reduction in N-formyl kynurenine formation at 200 uM by UV-visible spectroscopic analysis relative to control.
Target sequence in this assay (P14902 whole entry, looked up): as the sequence (P14902 whole entry) above
Series [6] is described as follows: Cytotoxicity against HEK293 cells assessed as cell viability at 10 to 100 uM measured after 24 hrs by alamar blue assay relative to control. In kind it is toxicity, cell-based. Conditions: human, dose 10-100 µM, read-out: Activity.

In the case of `COc1ccc(-c2nc3sccn3c2NC(C)(C)CC(C)(C)C)cc1O`, the half-maximal inhibitory concentration (IC50) in series [1] amounted to 25 µM.

For the compound `CC(C)(C)Nc1c(-c2ccc3c(c2)OCO3)nc2sccn12`, the half-maximal inhibitory concentration (IC50) in series [1] came to 1450 µM.

Take `CC(C)(C)Nc1c(-c2ccc(C(F)(F)F)cc2)nc2sccn12`: the IC50 in series [1] was determined as 1290 µM.

As to `c1ccc2c(c1)[nH]c1cnccc12`, the inhibition in series [2] was 17%.

For `Cc1n[nH]c2c1[C@@H](c1ccc(F)c(F)c1)c1c(N)n[nH]c1O2`, in series [1], the 50% inhibitory concentration (IC50) is 0.151 µM.

On to `CC(C)(C)CC(C)(C)Nc1c(-c2ccc(C(F)(F)F)cc2)nc2sccn12`, for which the IC50 in series [1] was found to be 1020 µM.

Consider `CC(C)(C)CC(C)(C)Nc1c(-c2ccccc2)nc2sccn12`, for which the concentration for half-maximal inhibition (IC50) in series [1] worked out at 465 µM.

For the compound `CCNCCc1c[nH]c2c1C(=O)C(c1cccnc1)=CC2=O`, the Ki in series [3] worked out at 0.16 µM.

With `CC(C)(C)CC(C)(C)Nc1c(-c2cccc(C#N)c2)nc2sccn12`, the IC50 in series [1] amounted to 477 µM.

On to `COc1cccc(-c2nc3sccn3c2NC(C)(C)C)c1`, for which the IC50 in series [1] turned out to be 281 µM.

In the case of `O=C(Cc1ccccc1)Nc1ccc(CCOc2ccccc2-c2cnc[nH]2)cc1`, the IC50 in series [1] came out at 0.028 µM.

With `CC(C)(C)Nc1c(-c2ccc(-c3ccccc3)cc2)nc2sccn12`, the Activity in the series on HEK293 is ~ 85%. For the same compound, the IC50 in series [1] turned out to be 23 µM. Also, in series [4], the viability at 24 h, up to 50 µM was determined as 100%.

Take `CC(C)(C)CC(C)(C)Nc1c(-c2ccncc2)nc2sccn12`: the IC50 in series [1] stood at 691 µM.

In the case of `COc1ccc(-c2nc3cc(C)ccn3c2NC(C)(C)C)cc1O`, in series [1], the half-maximal inhibitory concentration (IC50) stood at 287 µM.

Consider `CC(C)(C)CC(C)(C)Nc1c(-c2ccc(-c3ccccc3)cc2)nc2sccn12`, for which the IC50 in series [1] came to 47 µM.

Consider `C[C@H]1c2[nH]c3ccccc3c2C[C@]2(C)C(=O)N(C)C(=S)N12`, for which, in series [5], the inhibition came out at 29%.

In the case of `CC(C)(C)Nc1c(-c2ccncc2)nc2sccn12`, the IC50 in series [1] is 908 µM.

As to `O=S(=O)(Nc1cccc2cnccc12)c1ccc2c(c1)OCCO2`, the IC50 in series [1] was found to be 0.056 µM.

`COc1ccc(-c2nc3sccn3c2NCCN2CCOCC2)cc1O`: the half-maximal inhibitory concentration (IC50) in series [1] was determined as 73 µM.

For `COc1ccc(-c2nc3sccn3c2NC(C)(C)C)cc1O`, the viability at 24 h, up to 100 µM in series [6] was 100%. The 50% inhibitory concentration (IC50) in series [1] amounted to 13 µM.

In the case of `c1ccc(-c2ccc(-c3nc4sccn4c3NCCN3CCOCC3)cc2)cc1`, the half-inhibitory concentration (IC50) in series [1] was 106 µM.

Take `O[C@H](c1c(C2CC2)c(Cl)cc2cncn12)C1CC2CCC1CC2` (stereo partly specified): the IC50 in series [1] was 0.0096 µM.

Consider `CC(C)(C)Nc1c(-c2ccccc2)nc2sccn12`, for which the IC50 in series [1] was found to be 43 µM.
